Values joined by “and” are separate entries in the source; they are usually repeats but may differ in a detail not shown here. Equal values may be shown once.
What was measured:
Assay type in all cases: cell-based, Staphylococcus aureus
S. aureus ATCC 25923 [1] = assay: Minimum Inhibitory Concentration (MIC) on planktonic bacteria, CLSI M07-A9 modified for 96 well plates
S. aureus ATCC 25923 [2] = assay: Biofilm removal, MBEC Assay (ASTM E2799-12)
S. aureus ATCC 25923 [3] = assay: Biofilm prevention (inhibition), 96-well microplate assay

CCCCOP(=O)(OC)OCCCC [Dibutyl methyl phosphate]
MIC (S. aureus ATCC 25923 [1]): 0.24%
Biofilm Removal (S. aureus ATCC 25923 [2]): 99.99%
MBEC Qualitative (S. aureus ATCC 25923 [2]): >2.3%
Biofilm Prevention (S. aureus ATCC 25923 [3]): 99.99%

CCCCOP(=O)(O)OCCCC [Dibutyl phosphate]
MIC (S. aureus ATCC 25923 [1]): 0.24% and 0.01%
Biofilm Removal (S. aureus ATCC 25923 [2]): 99.99%
MBEC Qualitative (S. aureus ATCC 25923 [2]): 0.24%
Biofilm Prevention (S. aureus ATCC 25923 [3]): 99.99%

Reference: patent US20230248000A1, “ANTIMICROBIAL COMPOUNDS AND METHODS OF USE” (Aequor, Inc., priority 2016, published 2023)
